US20150297733A1 (TRIMEL BIOPHARMA SRL, priority 2012, published 2015)
Where two headings read alike, the source gives them in different places.

What was measured:
[1] = Solubility of testosterone in water, oils, solvents and vehicles
[2] = target: T1, sex hormone binding globulin (SHBG) (Homo sapiens, UniProt P04278); settings: cited from earlier work
T1 sequence (P04278 30-402): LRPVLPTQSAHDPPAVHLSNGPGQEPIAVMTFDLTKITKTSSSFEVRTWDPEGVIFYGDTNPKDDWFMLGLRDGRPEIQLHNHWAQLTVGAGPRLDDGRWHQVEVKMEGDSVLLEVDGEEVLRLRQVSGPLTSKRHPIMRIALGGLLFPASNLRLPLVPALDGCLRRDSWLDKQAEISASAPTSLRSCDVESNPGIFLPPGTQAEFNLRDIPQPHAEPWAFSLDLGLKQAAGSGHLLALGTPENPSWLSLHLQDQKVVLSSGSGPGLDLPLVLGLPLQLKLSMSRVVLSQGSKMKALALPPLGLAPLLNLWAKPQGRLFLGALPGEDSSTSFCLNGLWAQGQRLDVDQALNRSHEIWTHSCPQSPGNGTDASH

[3] = dissolved in polyethylene glycol (200 mg/ml); high variations; cited from earlier work
[4] = nasal, cited from earlier work
[5] = nasal, cited from earlier work; remark: listed apart in the source

For C[C@]12CC[C@H]3[C@@H](CCC4=CC(=O)CC[C@@]43C)[C@@H]1CC[C@@H]2O [Testosterone], which “amount dissolved by diethyleneglycol ethyl ether alone” value [1] is on record?
The value was “more than 10%”.

What about the “amount dissolved by dimethyl isosorbide (DMI)” value [1] of the same compound?
Its value is “more than 12%”.

What about the “testosterone levels in the gel allowed by DMI with the other excipients” value [1] of the same compound?
Its value is “at least 8.0%”.

And the “testosterone solubility in the oil based gel” value ([1]; oil based TBS-1A gel as printed)?
The value was ≤ 4.5%.

And the “fraction remaining unbound (free)” value ([2]; in men)?
Its value is “about 2%”.

What about the “fraction remaining unbound (free)” value ([2]; in women) of the same compound?
The value was “up to 3%”.

Which “duration of serum level” value [3] does the source give for CC(=O)[C@H]1CC[C@H]2[C@@H]3CCC4=CC(=O)CC[C@]4(C)[C@H]3CC[C@]12C [progesterone] here?
The value was “at least 8 hours”.

What about the Tmax ([4]; co-ground and co-lyophilized progesterone/cyclodextrin powder mixtures) of the same compound?
The Tmax was 2 to 5 min.

And the “time of serum level decrease” value ([4]; progesterone/cyclodextrin powder mixtures)?
Its value is ≤ 20 min.

For CN(C)CC(=O)O[C@H]1CC[C@H]2[C@@H]3CCC4=CC(=O)CC[C@]4(C)[C@H]3CC[C@]12C [testosterone 17β-N,N-dimethylglycinate], which “time to peak plasma concentration” value ([5]; 25 mg dose) is on record?
The value was ≤ 12 min.

And the “time to peak plasma concentration” value ([5]; 50 mg dose)?
Its value is ≤ 20 min.
